Laboratory results as given in patent US20100190711A1, “BIG GASTRIN I AS A THERAPEUTIC AGENT” (priority 2007, published 2010).
Where a SMILES comes first, the peptide text is derived from it. [ ]: non-standard residue; d: D form. pGlu = O=C1CC[C@@H](C(=O)O)N1

Columns and labels:
MRC-5 cells = assay: Cytotoxicity (CellTiter 96 cell viability) in the HCMV assay; details: MRC-5 cells, 6 days incubation
HIV-1IIIB = assay: HIV-1 antiviral assay (CPE reduction, MTS) in CEM-SS cells; format: cell-based; details: peptide 10 micrograms per ml; 6 days post-infection
CEM-SS cells = assay: Cytotoxicity (MTS cell viability) in the HIV-1 assay; details: CEM-SS cells, MTS; peptide 10 micrograms per ml
Pseudomonas aeruginosa = format: cell-based; details: 5 micrograms per ml
Streptococcus pneumoniae = format: cell-based; details: 5 micrograms per ml
MRSA = details: 5 micrograms per ml
in vitro = details: human, HepG2-2.2.15 cells
[1] = Cytotoxicity (MTS cell viability) in the HIV-1 assay; details: human, CEM-SS cells (uninfected, cells plus peptide only)
[2] = Cytotoxicity (CellTiter 96 cell viability) in the HCMV assay; details: human, MRC-5 cells (embryonal lung fibroblasts)

Structure (SMILES): Nc1nc(O)c2ncn(COC(CO)CO)c2n1 [Ganciclovir, reference compound]
- % Cell viability (MRC-5 cells): 100%

Structure (SMILES): Cc1cn([C@H]2C[C@H](N=[N+]=[N-])[C@@H](CO)O2)c(=O)[nH]c1=O [AZT, reference compound]
- % CPE reduction in HIV-1 infected CEM-SS cells (HIV-1IIIB): 99%
- % Cell viability (CEM-SS cells): 97%

Structure (SMILES): CSCC[C@H](NC(=O)[C@H](Cc1c[nH]c2ccccc12)NC(=O)CNC(=O)[C@H](Cc1ccc(O)cc1)NC(=O)[C@H](C)NC(=O)[C@H](CCC(=O)O)NC(=O)[C@H](CCC(=O)O)NC(=O)[C@H](CCC(=O)O)NC(=O)[C@H](CCC(=O)O)NC(=O)[C@H](CCC(=O)O)NC(=O)[C@H](CC(C)C)NC(=O)[C@H](Cc1c[nH]c2ccccc12)NC(=O)[C@@H]1CCCN1C(=O)CNC(=O)[C@H](CCC(N)=O)NC(=O)[C@H](CCCCN)NC(=O)[C@H](CCCCN)NC(=O)[C@H](CO)NC(=O)[C@@H]1CCCN1C(=O)[C@H](CC(=O)O)NC(=O)[C@H](C)NC(=O)[C@@H](NC(=O)[C@H](CC(C)C)NC(=O)[C@H](Cc1c[nH]cn1)NC(=O)[C@@H]1CCCN1C(=O)[C@@H]1CCCN1C(=O)CNC(=O)[C@H](CCC(N)=O)NC(=O)[C@@H]1CCCN1C(=O)CNC(=O)[C@H](CC(C)C)NC(=O)[C@@H]1CCC(=O)N1)C(C)C)C(=O)N[C@@H](CC(=O)O)C(=O)N[C@@H](Cc1ccccc1)C(N)=O [Big Gastrin I] ([pGlu]LGPQGPPHLVADPSKKQGPWLEEEEEAYGWMDF-NH2)
- % inhibition (Pseudomonas aeruginosa): 0.0%
- % inhibition (Streptococcus pneumoniae): 0.0%
- % inhibition (MRSA): 0.0%
- viability at 144 h, 10 micrograms per ml (in vitro): 88.7%
- viability at 10 micrograms per ml [1]: 100%
- viability at 144 h [2]: 100%

Structure (SMILES): CC(C)(C)NC(=O)[C@@H]1CN(Cc2cccnc2)CCN1C[C@@H](O)C[C@@H](Cc1ccccc1)C(=O)N[C@H]1c2ccccc2C[C@H]1O [Indinavir, indinavir]
- % CPE reduction in HIV-1 infected CEM-SS cells (HIV-1IIIB): 100%
